# Reference: patent publication US20230109717A1 (GAIA BioMedicine Inc., priority 2020, published 2023)
# Legend:
# highly active NK cells [1] = experiment: Viable cell count and recovery rate of highly active NK cells after thawing, based on cell number at freezing; parameters: species or system human
# Protocol: After the thawing, all the dilution and incubation operations were performed on a low-absorption 6-well plate.
# The cells of the groups diluted in the media were incubated overnight at 37° C. under 5% CO2, and then the numbers of viable cells were counted. The experimental conditions are summarized below.
# The NK cells obtained by the collection method 1 were suspended in PBS, and incubated at room temperature for 1 hour. The NK cells obtained by the collection method 2 were suspended in (1) the KBM501 medium, (2) KBM501 medium containing 30 μM 4-phenylbutyric acid, (3) KBM501 medium containing 30 μM tauroursodeoxycholic acid dihydrate (TUDCA, Tokyo Kasei Kogyo, T1567), and (4) KBM501 medium containing 30 μM 4-phenylbutyric acid and 30 μM TUDCA, and incubated at 37° C. for 2 hours under 5% CO2. […] After 1 hour, the cells were gently suspended, and number of viable cells was counted. After another 5-fold dilution in the KBM501 medium and incubation at 37° C. for 2 hours under 5% CO2, number of viable cells was counted, and the recovery rate based on the number of cells at the time of freezing was calculated.
# (§1) After 1 and 3 hours, the cells were gently suspended, and viable cells were counted. In addition, after 1 hour, the cells were diluted 5-fold in the KBM501 medium, and incubated at 37° C. for 2 hours under 5% CO2, and viable cell were counted. Recovery rate of viable cells after the thawing based on the cell number at the time of freezing was calculated using the number of viable cells at each time point.
# as §1, with “on the basis of” for “using”, “point after the thawing.” for “point.”
# highly active NK cells [2] = experiment: Viability of freeze-thawed highly active NK cells (7-AAD staining, flow cytometry, FlowJo); details: collect. method 2
# Protocol: The highly activated NK cells (1×10^5 cells/well) thawed under each condition were centrifuged on a 96-well plate (IWAKI, 4870-800SP), the supernatant was removed, and then a 7-amino-actinomycin D (7-AAD) solution diluted with PBS (Beckman Coulter, A 07704) was added to the cells to suspend them, and the suspension was incubated at room temperature (room temperature means 15 to 25° C., the same shall apply in the following experiments) for 20 minutes. The stained cells were measured by using a flow cytometer (BD LSR Fortessa, BD Biosciences).
# The NK cells frozen for 48 hours or longer were thawed in a water bath at 37° C., and 1×10^5 cells were dispensed on a 96-well plate (IWAKI) immediately after the thawing. […] The cells dispensed immediately after thawing were centrifuged immediately after they were dispensed, and the cells of the other four groups were centrifuged after incubation of 3 hours, measurement was performed by the method for staining with 7-AAD described above, and the results were analyzed with the FlowJo software (FLOWJO, LLC) to calculate viable cell rates.
# The NK cells frozen for 48 hours or longer were thawed at 37° C. in a water bath, and then 1×10^5 of the cells were dispensed on a 96-well plate immediately after the thawing. […] The cells dispensed immediately after thawing were centrifuged immediately after they were dispensed, and the cells of the other four groups were centrifuged after incubation of 3 hours, measurement was performed by the method for staining with 7-AAD described above, and the results were analyzed with the FlowJo software (FLOWJO, LLC) to calculate viable cell rates.
# Then, measurement was performed by the method for staining with 7-AAD described above, and the results were analyzed with the FlowJo software. […] Then, measurement was performed by the method for staining with 7-AAD described above, and the results were analyzed with the FlowJo software. (8-3) The experiment was performed in the same manner as in (8-1), but (1) PBS, (2) Plasma-Lyte A, (3) Plasma-Lyte A containing 27.7 mEq/L of lactic acid (Nacalai Tesque, 20006-62), (4) Plasma-Lyte A containing 48.84 mg/L of MgSO4.7H2O (Nacalai Tesque, 21002-85), (5) Lactoringer, (6) Veen-F (Fuso Pharma), (7) Solita-T1 (AY Pharmaceuticals), (8) Solita-T3 (AY Pharmaceuticals), (9) 5% glucose injection solution (Terumo), and (10) RPMI medium were used as the solvents for dilution of thawed cells, and the cells were incubated at 37° C. for 3 hours. In the case of (3), lactic acid was added at the same concentration as the lactate concentration in Lactoringer, and neutrality of the solution was confirmed with litmus test paper. In the case of (4), MgSO4 was added at the same concentration as the MgSO4 concentration in HBSS. Measurement was then performed by the method for staining with 7-AAD described above, and the results were analyzed with the FlowJo software. (8-4) The experiment was performed in the same manner as in (8-2), but the cells were treated by using (1) PBS, (2) Plasma-Lyte A, (3) saline (OTSUKA NORMAL SALINE, Otsuka Pharmaceutical), (4) Bicanate (Otsuka Pharmaceutical), and (5) Solacet F (Terumo) as the solvents for dilution of thawed cells. Measurement was then performed by the method for staining with 7-AAD described above, and the results were analyzed with the FlowJo software. […] Immediately after completely thawed, the cells were diluted 10-fold in (1) Plasma-Lyte A, (2) saline, (3) RPMI 1640 medium, (4) Lactoringer, (5) 0.423 mM CaCl2 prepared in Plasma-Lyte A, and (6) 1.36 mM CaCl2, and left to stand at 37° C. for 3 hours. The CaCl2 concentration of (5) was the same as that in the RPMI 1640 medium, and the CaCl2 concentration of (6) was the same as that in Lactoringer. Measurement was then performed by the method for staining with 7-AAD described above, and the results were analyzed with the FlowJo software.
smiles,measurement,setting,value
"C[C@H](CCC(=O)NCCS(=O)(=O)O)[C@H]1CC[C@H]2[C@@H]3[C@@H](O)C[C@@H]4C[C@H](O)CC[C@]4(C)[C@H]3CC[C@]12C [TUDCA, tauroursodeoxycholic acid dihydrate]",Recovery rate,"highly active NK cells [1]; added before freezing at 800 μM (preferable between 2,400 μM and 267 μM)",higher recovery rate
same,Recovery rate after the thawing,"highly active NK cells [1]; pretreatment 2 hours with KBM501 medium supplemented with 30 μM additive before freezing, Example 5",improved
same,Recovery rate after thawing,"highly active NK cells [1]; pretreatment with KBM501 medium supplemented at various concentrations (266 to 2400 μM), Example 7",improved
same,Recovery rate after the thawing,"highly active NK cells [1]; pretreatment with KBM501 medium supplemented with various concentrations (10 to 810 μM), Example 6",improved
same,Viability,"highly active NK cells [2]; Exmp. 6, pretreatment KBM + 10 μM TUDCA 2 h, thawing PlasmaLyte R.T. 1 h, then KBM 2 h",A (“A” means 70% or higher)
same,Viability,"highly active NK cells [2]; Exmp. 6, pretreatment KBM + 10 μM TUDCA 2 h, thawing PlasmaLyte R.T. 3 h",A (“A” means 70% or higher)
same,Viability,"highly active NK cells [2]; Exmp. 6, pretreatment KBM + 30 μM TUDCA 2 h, thawing PlasmaLyte R.T. 1 h, then KBM 2 h",A (“A” means 70% or higher)
same,Viability,"highly active NK cells [2]; Exmp. 6, pretreatment KBM + 30 μM TUDCA 2 h, thawing PlasmaLyte R.T. 3 h",A (“A” means 70% or higher)
same,Viability,"highly active NK cells [2]; Exmp. 6, pretreatment KBM + 90 μM TUDCA 2 h, thawing PlasmaLyte R.T. 1 h, then KBM 2 h",A (“A” means 70% or higher)
same,Viability,"highly active NK cells [2]; Exmp. 6, pretreatment KBM + 90 μM TUDCA 2 h, thawing PlasmaLyte R.T. 3 h",A (“A” means 70% or higher)
same,Viability,"highly active NK cells [2]; Exmp. 6, pretreatment KBM + 270 μM TUDCA 2 h, thawing PlasmaLyte R.T. 1 h, then KBM 2 h",A (“A” means 70% or higher)
same,Viability,"highly active NK cells [2]; Exmp. 6, pretreatment KBM + 270 μM TUDCA 2 h, thawing PlasmaLyte R.T. 3 h",A (“A” means 70% or higher)
same,Viability,"highly active NK cells [2]; Exmp. 6, pretreatment KBM + 810 μM TUDCA 2 h, thawing PlasmaLyte R.T. 1 h, then KBM 2 h",A (“A” means 70% or higher)
same,Viability,"highly active NK cells [2]; Exmp. 6, pretreatment KBM + 810 μM TUDCA 2 h, thawing PlasmaLyte R.T. 3 h",A (“A” means 70% or higher)
same,Viability,"highly active NK cells [2]; Exmp. 7, pretreatment KBM + 266 μM TUDCA 2 h, thawing PlasmaLyte + IL-2, R.T. 1 h",A (“A” means 70% or higher)
same,Viability,"highly active NK cells [2]; Exmp. 7, pretreatment KBM + 266 μM TUDCA 2 h, thawing PlasmaLyte + IL-2, R.T. 1 h, then KBM 2 h",A (“A” means 70% or higher)
same,Viability,"highly active NK cells [2]; Exmp. 7, pretreatment KBM + 266 μM TUDCA 2 h, thawing PlasmaLyte + IL-2, R.T. 3 h",A (“A” means 70% or higher)
same,Viability,"highly active NK cells [2]; Exmp. 7, pretreatment KBM + 266 μM TUDCA 2 h, thawing PlasmaLyte R.T. 1 h",A (“A” means 70% or higher)
same,Viability,"highly active NK cells [2]; Exmp. 7, pretreatment KBM + 266 μM TUDCA 2 h, thawing PlasmaLyte R.T. 1 h, then KBM 2 h",A (“A” means 70% or higher)
same,Viability,"highly active NK cells [2]; Exmp. 7, pretreatment KBM + 266 μM TUDCA 2 h, thawing PlasmaLyte R.T. 3 h",A (“A” means 70% or higher)
same,Viability,"highly active NK cells [2]; Exmp. 7, pretreatment KBM + 800 μM TUDCA 2 h, thawing PlasmaLyte + IL-2, R.T. 1 h",A (“A” means 70% or higher)
same,Viability,"highly active NK cells [2]; Exmp. 7, pretreatment KBM + 800 μM TUDCA 2 h, thawing PlasmaLyte + IL-2, R.T. 1 h, then KBM 2 h",A (“A” means 70% or higher)
same,Viability,"highly active NK cells [2]; Exmp. 7, pretreatment KBM + 800 μM TUDCA 2 h, thawing PlasmaLyte + IL-2, R.T. 3 h",A (“A” means 70% or higher)
same,Viability,"highly active NK cells [2]; Exmp. 7, pretreatment KBM + 800 μM TUDCA 2 h, thawing PlasmaLyte R.T. 1 h",A (“A” means 70% or higher)
same,Viability,"highly active NK cells [2]; Exmp. 7, pretreatment KBM + 800 μM TUDCA 2 h, thawing PlasmaLyte R.T. 1 h, then KBM 2 h",A (“A” means 70% or higher)
same,Viability,"highly active NK cells [2]; Exmp. 7, pretreatment KBM + 800 μM TUDCA 2 h, thawing PlasmaLyte R.T. 3 h",A (“A” means 70% or higher)
same,Viability,"highly active NK cells [2]; Exmp. 7, pretreatment KBM + 2400 μM TUDCA 2 h, thawing PlasmaLyte + IL-2, R.T. 1 h",A (“A” means 70% or higher)
same,Viability,"highly active NK cells [2]; Exmp. 7, pretreatment KBM + 2400 μM TUDCA 2 h, thawing PlasmaLyte + IL-2, R.T. 1 h, then KBM 2 h",A (“A” means 70% or higher)
same,Viability,"highly active NK cells [2]; Exmp. 7, pretreatment KBM + 2400 μM TUDCA 2 h, thawing PlasmaLyte + IL-2, R.T. 3 h",A (“A” means 70% or higher)
same,Viability,"highly active NK cells [2]; Exmp. 7, pretreatment KBM + 2400 μM TUDCA 2 h, thawing PlasmaLyte R.T. 1 h",A (“A” means 70% or higher)
same,Viability,"highly active NK cells [2]; Exmp. 7, pretreatment KBM + 2400 μM TUDCA 2 h, thawing PlasmaLyte R.T. 1 h, then KBM 2 h",A (“A” means 70% or higher)
same,Viability,"highly active NK cells [2]; Exmp. 7, pretreatment KBM + 2400 μM TUDCA 2 h, thawing PlasmaLyte R.T. 3 h",A (“A” means 70% or higher)
